Laboratory results from the NIST ThermoML archive (doi:10.1021/je201032t).
Numbers after ± are expanded uncertainties.

Experiments:
[1] = Liquid, Ebulliometric method (Recirculating still)
[2] = refractive index (Na D-line) (dimensionless); conditions: 293.15 K; 101.33 kPa; Liquid; Standard Abbe refractometry

Row | Structure (SMILES) | vapor or sublimation pressure ([1]; 323 K) [kPa] | vapor or sublimation pressure ([1]; 343.4 K) [kPa] | vapor or sublimation pressure ([1]; 353.2 K) [kPa] | vapor or sublimation pressure ([1]; 363.1 K) [kPa] | vapor or sublimation pressure ([1]; 369.2 K) [kPa] | refractive index [2]
1 | CCCCCCCCCCCC [dodecane] | 0.12 | 0.46 | 0.73 ± 1.2 | 1.31 ± 1.2 | 1.76 ± 1.2 | 1.4192 ± 0.0007
2 | CCCO [propan-1-ol] | 12.11 ± 1.2 | 32.82 ± 1.2 | 50.82 ± 1.3 | 76.67 ± 1.4 | 96.66 ± 1.4 | 1.382 ± 0.0007
